This passage reports IC50 and viability results from ChEMBL document CHEMBL2331116, “Microbial transformation of acetyl-11-keto-β-boswellic acid and their inhibitory activity on LPS-induced NO production” (Bioorg Med Chem Lett, 2013).

Structures are written as SMILES.

Broadly, the IC50 is the concentration needed to halve the response being measured.

One data set deals with RAW264.7. As to the kind of experiment: Antiinflammatory activity in mouse RAW264.7 cells assessed as inhibition of LPS-induced NO production after 24 hrs. The data set is classed as functional, cell-based. The settings on record: RAW264.7, 24 h.
Data set [1] is described as follows: Cytotoxicity against mouse RAW264.7 cells assessed as cell viability at 100 uM after 24 hrs by MTT assay relative to control. The data set is classed as cell-based. The settings on record: read-out: Activity. For orientation: Formazan colour is commonly taken as a measure of viable cells.

As for `CC(=O)O[C@@H]1CC[C@@]2(C)[C@@H](C[C@H](O)[C@]3(C)[C@@H]2C(=O)C=C2[C@@H]4[C@@H](C)[C@H](C)[C@@H](O)C[C@]4(C)CC[C@]23C)[C@@]1(C)C(=O)O`, the IC50 in the data set on RAW264.7 came to 87.7 µM. Besides, the viability at 24 h, 100 µM in data set [1] was 104%. With `CC(=O)O[C@@H]1CC[C@@]2(C)[C@@H](CC[C@]3(C)[C@@H]2C(=O)C=C2[C@@H]4[C@@H](C)[C@H](C)[C@@H](O)C[C@]4(C)C[C@H](O)[C@]23C)[C@@]1(C)C(=O)O`, the IC50 in the data set on RAW264.7 was > 100 µM. Further, the viability at 24 h, 100 µM in data set [1] came to 134%. The corresponding values for `CC(=O)O[C@@H]1CC[C@@]2(C)[C@@H](C[C@H](O)[C@]3(C)[C@@H]2C(=O)C=C2[C@@H]4[C@@H](C)[C@H](C)CC[C@]4(C)C[C@H](O)[C@]23C)[C@@]1(C)C(=O)O` are > 100 µM and 108%.

As to `CC(=O)O[C@@H]1CC[C@@]2(C)[C@@H](CC[C@]3(C)[C@@H]2C(=O)C=C2[C@@H]4[C@@H](C)[C@H](C)CC[C@]4(C)CC[C@]23C)[C@@]1(C)C(=O)O` [AKBA], in the data set with RAW264.7, the IC50 stood at 15.6 µM. In addition, the viability at 24 h, 100 µM in data set [1] was 81.2%. Turning to `CC(=O)O[C@@H]1CC[C@@]2(C)[C@@H](C[C@H](O)[C@]3(C)[C@@H]2C(=O)C=C2[C@@H]4[C@@H](C)[C@H](C)CC[C@]4(C)CC[C@]23C)[C@@]1(C)C(=O)O`, in the data set on RAW264.7, the IC50 came out at 1.5 µM. Moreover, the viability at 24 h, 100 µM in data set [1] came out at 84.2%. As to `CC(=O)O[C@@H]1CC[C@@]2(C)[C@@H](C[C@H](O)[C@]3(C)[C@@H]2C(=O)C=C2[C@@H]4[C@@H](C)[C@H](C)[C@@H](O)C[C@]4(C)C[C@H](O)[C@]23C)[C@@]1(C)C(=O)O`, the IC50 in the data set on RAW264.7 is > 100 µM. Further, in data set [1], the viability at 24 h, 100 µM was found to be 103%. For the compound `CC(=O)O[C@@H]1CC[C@@]2(C)[C@@H](C[C@H](O)[C@]3(C)[C@@H]2C(=O)C=C2[C@@H]4[C@@H](C)[C@H](C)C[C@H](O)[C@]4(C)CC[C@]23C)[C@@]1(C)C(=O)O`, the IC50 in the data set with RAW264.7 was 76.8 µM. The viability at 24 h, 100 µM in data set [1] turned out to be 89.8%. The corresponding values for `CC(=O)O[C@@H]1CC[C@@]2(C)[C@@H](C[C@H](O)[C@]3(C)[C@@H]2C(=O)C=C2[C@@H]4[C@@H](C)[C@H](C)CC[C@]4(C)[C@H](O)C[C@]23C)[C@@]1(C)C(=O)O` are 10.6 µM and 98.1%. With `CN(C)c1ccc(O)c2c1C[C@H]1C[C@H]3[C@H](N(C)C)C(O)=C(C(N)=O)C(=O)[C@@]3(O)C(O)=C1C2=O` [MINOCYCLINE], the viability at 24 h, 100 µM in data set [1] came to 100%.
